Measurements as given in patent US8865659B2, “Compositions for prevention or treatment of Hepatitis C virus containing ginsenoside Rg3 as an active ingredient” (priority 2012, dated 2014).

Legend:
[1] = test system: Huh 7.5.1 cells infected with JFH-1 virus; experiment: Microscopic identification of virus suppression effect (cell shape, phase contrast microscope); assay type: cell-based; details: 100 μM, JFH-1 infected
Description: About 200,000 Huh 7.5.1 cells were added to a 60×15 mm cell culture dish and every 100 μM of seven ginsenosides (Ro, Re, Rg1, Rg2, Rg3, Rh1, Rh2) per 60×15 mm cell culture dish each was treated. Since it was necessary for ginsenosides in powder formulation to make solutions for the experiments, 50 mM basic concentration solutions for the seven ginsenosides each were prepared and the basic solutions were refrigerated at 4° C. until they were needed.
Non-treatment group (Control), Non-treatment group and DMSO 10 μl treatment group (Control+DMSO 10 μl), JFH-1 virus treatment group (Only JFH-1), JFH-1 virus and DMSO 10 μl treatments group (JFH-1+DMSO 10 μl), JFH-1 virus and Ro 100 uM treatments group (JFH-1+Ro 100 uM), JFH-1 virus and Re 100 uM treatments group (JFH-1+Re 100 uM), JFH-1 virus and Rg1 100 uM treatments group (JFH-1+Rg1 100 uM), JFH-1 virus and Rg2 100 uM treatments group (JFH-1+Rg2 100 uM), JFH-1 virus and Rg3 100 uM treatments group (JFH-1+Rg3 100 uM), JFH-1 virus and Rh1 100 uM treatments group (JFH-1+Rh1 100 uM), JFH-1 virus and Rh2 100 uM treatments group (JFH-1+Rh2 100 uM), JFH-1 virus and Rg1 100 uM treatments group (JFH-1+Rg1 100 uM).
The experiment was carried out as follow. First, 200,000 Huh 7.5.1 cells were placed in a 60×15 mm cell culture dish. Next day, Japanese Fulminant Hepatitis-1 virus (JFH-1) stock vial which was stored in −70° C. refrigerator was taken out and thawed out in a container filled with ice-water. The culture medium was collected from the cultured 60×15 mm cell culture dish, washed with 1×PBS and collected, again. 1.5 ml of JFH-1 virus solution per 60×15 mm cell culture dish each was added. The dish was shaken to cover the surface sufficiently. The dish was laid in a 5% CO2 incubator at 37° C. for 6 hours and after that, the supernatant was draw out. 1×PBS was spread on the cell surface as slow as possible and after one time washing, cells were collected. 5 ml of cell culture media was added to control and JFH-1 treatments groups. At the last step of virus-infection, 5 ml CM and each […] of ginsenosides which was set to 50 mM concentration were added to the cell culture media. After that, the cell culture media was laid in a 5% CO2 incubator at 37° C. After 72 hours, the following steps were carried out.
As described in the above Example 3, each 100 μM of seven ginsenosides (Ro, Re, Rg1, Rg2, Rg3, Rh1, Rh2) was treated to Huh 7.5.1 cells. After 24 hours and 72 hours, the shapes of Huh 7.5.1 cells were observed using a phase contrast microscope (ECLIPSE TE300, Nicon) of 400× magnifications.

[2] = target: T1, HCV NS3/4A protease (Hepatitis C virus genotype 2a, UniProt Q99IB8); experiment: HCV NS3/4A protease activity (HCV Protease Assay kit, ANASPEC); assay type: biochemical
T1 construct: Diluted HCV NS3 protease to an appropriate concentration in assay buffer; expressed in transfected cells; host or cells: HCV replicon-containing Huh7 cells (membrane fractions)
T1 sequence (Q99IB8 1031-1661): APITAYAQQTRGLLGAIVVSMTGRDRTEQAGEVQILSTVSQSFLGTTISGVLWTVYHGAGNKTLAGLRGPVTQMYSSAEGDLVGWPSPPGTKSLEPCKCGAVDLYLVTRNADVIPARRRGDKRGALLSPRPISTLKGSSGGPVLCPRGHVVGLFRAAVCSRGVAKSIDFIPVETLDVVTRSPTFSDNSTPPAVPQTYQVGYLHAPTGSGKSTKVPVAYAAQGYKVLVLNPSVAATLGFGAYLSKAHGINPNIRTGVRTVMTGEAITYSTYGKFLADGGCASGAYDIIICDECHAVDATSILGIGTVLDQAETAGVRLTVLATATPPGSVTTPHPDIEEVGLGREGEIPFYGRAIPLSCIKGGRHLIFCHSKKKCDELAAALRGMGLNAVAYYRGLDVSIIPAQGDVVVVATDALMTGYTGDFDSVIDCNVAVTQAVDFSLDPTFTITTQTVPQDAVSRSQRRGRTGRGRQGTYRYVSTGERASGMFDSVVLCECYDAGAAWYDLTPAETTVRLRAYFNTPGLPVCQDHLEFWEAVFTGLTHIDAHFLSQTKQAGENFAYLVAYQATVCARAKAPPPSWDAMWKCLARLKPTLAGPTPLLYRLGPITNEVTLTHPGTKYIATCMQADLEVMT
T1 sequence (Q99IB8 1662-1715): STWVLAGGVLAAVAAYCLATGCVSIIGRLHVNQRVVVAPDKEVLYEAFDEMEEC
Description: HCV Protease Assay kit (ANASPEC) was used to the following experiments. The components, description and quantity were as follows:
Diluted HCV protease substrate (Component A) 1:50 in assay buffer.
Diluted HCV NS3 protease to an appropriate concentration in assay buffer.
b) Mixed an equal volume of the HCV NS3 protease diluent and Pep4AK diluent. Incubated the mixture at 23-25° C. for 15 min.
The HCV replicon-containing cells (e.g. 1×10^7-10^8 Huh7 cells) grew to 90% confluence. The cells were washed with 1× phosphate-buffered saline once, and then the cells were detached by scraping. The cell pellets were harvested by centrifuging at 900×g for 10 min at 4° C. The cell pellets were resuspended with 1 mL of hypotonic buffer (10 mM Tris-HCl, pH 7.8, 10 mM NaCl), and then the cell pellets were incubated on ice for 15-20 min. The cell pellets were disrupted with 50 strokes of a tight fitting pestle in a Dounce homogenizer. The homogenate was centrifuged at 900×g for 5 min at 4° C. to remove the nuclei, which was in the pellet. […]
For kinetics reading: Immediately started measuring fluorescence intensity at Ex/Em=490 nm/520 nm continuously and recorded data every 5 min for 30 to 60 min.
For end-point reading: Incubated the reaction at room temperature for 30 to 60 minutes. […] Then measured fluorescence intensity at Ex/Em=490 nm/520 nm.

[3] = test system: TNF-α; experiment: Real-time PCR for TNF-α level in virus-infected Huh 7.5.1 cells; assay type: cell-based
Description: To identify a mechanism of apoptosis action, virus-infected Huh 7.5.1 cells were treated with ginsenoside Rg3 and conducted real-time PCR (Taqman Real-time Quantitative RT-PCR Assay for HCV RNA Detection) to estimate TNF-α level.
First, a total number of 50,000 Huh 7.5.1 cells were incubated in 24 well and a total RNA was extracted from the above stated treated cells using Rneasy mini kit (QIAGEN Corp.). And then, the total RNA was quantified by Nanodrop 1000 (Thermo Scientific Corp.), and manufactured cDNA by conducting RT PCR (Reverse Transcription-PCR) using i cycler, (BIO-RAD Co.). After the synthesized cDNAs were reacted with TaqMan GX Master Mix (Applied Biosystems, Branchburg, N.J.), TNF-α, B-actin mRNAs were quantified by 96 well real-time PCR (StepOne Plus Sequence detector system, Applied Biosystems). Verified primer/probe set was purchased to conduct the TaqMan Gene Expression assay in this experiment (Gene: TNF-α (TNF-alpha) # Hs01113624_g1, Gene Symbol: ACTB # Hs99999903_m1).

`CC(C)=CCC[C@](C)(O)[C@H]1CC[C@]2(C)[C@@H]1[C@H](O)C[C@@H]1[C@@]3(C)CC[C@H](O[C@@H]4O[C@H](CO)[C@@H](O)[C@H](O)[C@H]4O[C@@H]4O[C@H](CO)[C@@H](O)[C@H](O)[C@H]4O)C(C)(C)[C@@H]3CC[C@]12C` [ginsenoside Rg3] was tested, and the “shapes of Huh 7.5.1 cells” value ([1]; 24 hours after treatment) was “fuses cells”, the “shapes of Huh 7.5.1 cells” value ([1]; 72 hours after treatment) was “fuses cells” and the NS3/4 protease activity [2] was “inhibited”. The “NS3/4 protease activity, dose dependence” value [2] was “dose-dependent manner” and the “level of TNF-α” value [3] was “remarkably decreased”.
